# Assay results reported in patent publication US9883998B2, “Methods for lightening skin using arbutin compositions” (OMP, Inc., priority 2007, dated 2018).
# Columns and labels:
# [1] = tested on: skin; assay: Skin lightening in volunteers by Minolta Chromameter b* parameter; assay type: in vivo, human; conditions: for dose dependence of skin lightening efficacy: 4% versus 7% arbutin in Examples 1 and 2 base formulas
# Text: Ten volunteers between the ages of 18 and 60 years of age enrolled in the study. Volunteers included in the study were of Asian or Caucasian descent with a Fitzpatrick phototype III or above. Enrolled subjects were free of any systemic or dermatologic disorder, including a known history of allergies or other medical conditions which, in the opinion of the Medical Investigator, could interfere with the conduct of the study, interpretation of results, or increase the risk of adverse reactions. Moreover, volunteers had no clinically significant abnormal findings, based on their medical history, which may have affected study participation as determined by the investigator. Impaneled female volunteers were not pregnant (as assessed with a urine pregnancy test at the start of the study and every 4 weeks thereafter) and agreed to use suitable contraceptive methods throughout the duration of the study. All volunteers were willing to refrain from using any medications, moisturizers, sunscreens, fragrances or new personal care products/laundry detergents on the back for the duration of the study and were also willing to avoid sun exposure, on the back (ie, sunbathing), as best as possible and refrain from using tanning booths for the study duration. Furthermore, subjects agreed to avoid swimming for the entire study.
# All volunteers reported to the clinical site every day, excluding weekends, for application of study products in an open label, un-blinded fashion. Study products and dosing were as follows:
# All subjects had 2 cm^2 squares demarcated on their backs, with a plastic template adhered to the skin, for identification of treatment sites. […]
# The safety of the formulations of Example 1 and Example 2 was assessed via Repeated Insult Patch Testing on 49 volunteers, in a separate study. All products used in the study presented herein were evaluated for safety through investigator scoring of the application sites at baseline, 4- and 8-weeks. […] Skin lightening was assessed via use of the Minolta CR-300 Chromameter® at baseline, 4- and 8-weeks. […]
# [2] = target: tyrosinase (Homo sapiens, UniProt P14679); conditions: human melanocyte cultures; cited from earlier work
# Chain of tyrosinase (P14679 19-529): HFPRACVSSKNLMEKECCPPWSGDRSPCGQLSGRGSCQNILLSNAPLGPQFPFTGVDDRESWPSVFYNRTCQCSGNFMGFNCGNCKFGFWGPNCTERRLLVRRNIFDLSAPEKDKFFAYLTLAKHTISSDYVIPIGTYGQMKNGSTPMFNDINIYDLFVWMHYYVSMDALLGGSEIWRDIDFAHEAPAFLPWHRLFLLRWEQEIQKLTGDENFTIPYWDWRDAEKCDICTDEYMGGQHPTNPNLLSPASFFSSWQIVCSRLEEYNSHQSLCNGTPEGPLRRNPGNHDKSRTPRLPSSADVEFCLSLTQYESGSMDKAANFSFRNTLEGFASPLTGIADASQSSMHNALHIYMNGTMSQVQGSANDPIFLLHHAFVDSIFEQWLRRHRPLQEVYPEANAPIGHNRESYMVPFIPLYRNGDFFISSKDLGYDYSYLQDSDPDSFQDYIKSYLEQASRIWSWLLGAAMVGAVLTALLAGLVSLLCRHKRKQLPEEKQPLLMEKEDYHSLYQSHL
smiles,measurement,setting,value
"OC[C@H]1O[C@@H](Oc2ccc(O)cc2)[C@H](O)[C@@H](O)[C@@H]1O [Arbutin, hydroxy phenyl-b-D-glucopyranoside]",dose dependence of skin lightening efficacy,[1],dose dependent
same,dose dependence of skin lightening efficacy,[1]; listed as arbutin,dose dependant
same,skin lightening efficacy of 7% arbutin versus 4% hydroquinone,"[1]; 7% arbutin, relatively non-photoexposed skin, formulas similar to bleaching and correcting cream and Blender bases",equally as efficacious as 4% hydroquinone
same,tyrosinase inhibiting potency relative to hydroquinone,[2],one-hundredth that of hydroquinone
